Experimental data reported in US11141413B2, “Method of treating renal cell carcinoma using N-(4-(6,7-dimethoxyquinolin-4-yloxy)phenyl)-N′-(4-fluorophenyl)cyclopropane-1,1-dicarboxamide, (2S)-hydroxybutanedioate” (Exelixis, Inc., priority 2016, dated 2021).

System: patients with advanced renal cell carcinoma
Experiment: METEOR quality of life (FKSI-19, FKSI-DRS, EQ-5D-5L) and time to deterioration
Type: in vivo, human
Conditions: for EQ-VAS, Cabo vs Evero Intercept (change at Week 4) / EQ-VAS, Cabo vs Evero Slope / FKSI-19 Total, Cabo vs Evero Intercept (change at Week 4) / FKSI-19 Total, Cabo vs Evero Slope / FKSI-DRS (9-item), Cabo vs Evero Intercept (change at Week 4) / FKSI-DRS (9-item), Cabo vs Evero Slope: growth curve analysis
Description: Patients completed the 19-item Functional Assessment of Cancer Therapy-Kidney Symptoms Index (FKSI-19) and the 5-level EuroQoL-5 Dimensions (EQ-5D-5L) questionnaires at baseline and throughout the study. The 9-item FKSI-Disease Related Symptoms (FKSI-DRS) is a subset of FKSI-19. Data were summarized descriptively and by mixed-effects repeated-measures analysis (clinically relevant difference was an effect size ≥0.3). Time to deterioration (TTD) was defined as earlier of death, radiographic progressive disease or ≥4-point decrease from baseline in FKSI-DRS.
QoL was measured by using two validated patient self-reported instruments: the Functional Assessment of Cancer Therapy-Kidney Symptom Index-19 item (FKSI-19) and EuroQol Group's EQ-5D-5L questionnaires. Patients were required to complete the QoL questionnaires before any assessments at each clinic visit prior to the first dose, every 4 weeks through Week 25, every 8 weeks thereafter for the first year, then every 12 weeks thereafter. The QoL assessments were conducted per protocol prior to the patient knowing the results of their next tumor assessment. These assessments were performed regardless of whether study treatment was given, reduced, interrupted, or discontinued until the date of the last tumor imaging assessment. Questionnaires were provided on paper in the patient's own language.
The FKSI-19 instrument is a 19-item self-reported questionnaire with a total score and four subscales that assesses disease-related symptoms (DRS), treatment side effects, and function/well-being associated with advanced kidney cancer. It queries symptom severity and interference in activity and general health perceptions (Rao D, Butt Z, Rosenbloom S, Robinson D Jr, Von Roenn J, Kuzel T M, Cella D. A Comparison of the Renal Cell Carcinoma-Symptom Index (RCC-SI) and the Functional Assessment of Cancer Therapy-Kidney Symptom Index (FKSI). J Pain Symptom Manage. 2009; 38(2):291-8; Rothrock N E, Jensen S E, Beaumont J L, Abernethy A P, Jacobsen P B, Syrjala K, Cella D. Development and initial validation of the NCCN/FACT symptom index for advanced kidney cancer. Value Health. 2013; 16(5):789-96). The FKSI-19 comprises four sub-scales (DRS-Physical, DRS-Emotional, Treatment Side Effects, and Function/Well Being; Table 2.1). Each of the items is scored on a 5-point scale from 0 (not at all) to 4 (very much). Higher FKSI-19 scores indicate improvement. The FKSI-19 ensures content validity congruent with FDA Guidance (FDA. Guidance for Industry. Patient-Reported Outcome Measures: Use in Medical Product Development to Support Labeling Claims. December 2009). and was developed from a previous 9-item DRS version (FKSI-DRS; lack of energy, pain, losing weight, fatigue, short of breath, fevers, bone pain, coughing, blood in urine). The FKSI-19 includes selected treatment side effects that are important to the patient and physician.
The standardized measure of health status EQ-5D-5L, developed by the EuroQol, was also used in this study in order to measure generic health status (Herdman M, Gudex C, Lloyd A, Janssen M, Kind P, Parkin D, t al. Development and preliminary testing of the new five-level version of EQ-5D (EQ-5D-5L). Qual Life Res. 2011; 20(10):1727-36). It comprises five functional and symptom dimensions: mobility, self-care, usual activities, pain/discomfort, and anxiety/depression. Levels indicate increasing severity from Level 1 (no problem) to Levels 2 through 5 (mild problem to extreme problem). The digits from the 5 dimensions were converted into a single population-based index value normalized across the nine countries in the study for which index value sets were available (van Hout B, Janssen M F, Feng Y S, Kohlmann T, Busschbach J, Golicki D, et al. Interim scoring for the EQ-5D-5L: mapping the EQ-5D-5L to EQ-5D-3L value sets. Value Health. 2012; 15(5):708-15). Index values range from 0 to 1 and a higher index score indicates better health. […]

[1] = FKSI-19 item, repeated measures, ITT
[2] = FKSI-19 subscale, repeated measures, ITT
[3] = bone metastases per IRC at baseline: No
[4] = bone metastases per IRC at baseline: Yes
[5] = cabozantinib vs everolimus, positive favors cabozantinib
[6] = Late Dropout (Week 41 or later)

COc1cc2nccc(Oc3ccc(NC(=O)C4(C(=O)Nc5ccc(F)cc5)CC4)cc3)c2cc1OC [cabozantinib]
Able to work, LSMean change from baseline [1]: −0.151 | Blood in my urine, LSMean change from baseline [1]: 0.005 | Bone pain, LSMean change from baseline [1]: 0.049 | Content with quality life, LSMean change from baseline [1]: −0.035 | Coughing, LSMean change from baseline [1]: 0.237 | Diarrhea, LSMean change from baseline [1]: −1.28 | Enjoy life, LSMean change from baseline [1]: −0.017 | Fatigued, LSMean change from baseline [1]: −0.325 | Fevers, LSMean change from baseline [1]: 0.056 | Good appetite, LSMean change from baseline [1]: −0.166 | Lack of energy, LSMean change from baseline [1]: −0.244 | Losing weight, LSMean change from baseline [1]: −0.533 | Nausea, LSMean change from baseline [1]: −0.236 | Pain, LSMean change from baseline [1]: 0.125 | Short of breath, LSMean change from baseline [1]: 0.029 | Side effects of treatment, LSMean change from baseline [1]: −0.850 | Sleeping well, LSMean change from baseline [1]: 0.018 | Weak all over, LSMean change from baseline [1]: −0.281 | Worry condition worsen, LSMean change from baseline [1]: 0.398 | DRS-Emotional, LSMean change from baseline [2]: 0.398 | DRS-Physical, LSMean change from baseline [2]: −1.093 | Function/Well-Being, LSMean change from baseline [2]: −0.230 | Treatment Side Effects, LSMean change from baseline [2]: −2.416 | Median TTD [3]: 5.5 mo | TTD HR, cabozantinib vs everolimus [3]: 0.69 | Median TTD [4]: 5.6 mo | TTD HR, cabozantinib vs everolimus [4]: 0.49 | Able to work, Effect Size [5]: −0.037 | Blood in my urine, Effect Size [5]: 0.023 | Bone pain, Effect Size [5]: −0.008 | Content with quality life, Effect Size [5]: −0.014 | Coughing, Effect Size [5]: 0.28 | DRS-Emotional, Effect Size [5]: 0.004 | DRS-Physical, Effect Size [5]: 0.046 | EQ-VAS, Effect Size [5]: −0.003 | Enjoy life, Effect Size [5]: −0.002 | FKSI-19 (19-item) Total Score, Effect Size [5]: −0.13 | FKSI-DRS (9-item), Effect Size [5]: 0.087 | Fatigued, Effect Size [5]: −0.017 | Fevers, Effect Size [5]: 0.13 | Function/Well-Being, Effect Size [5]: −0.019 | Good appetite, Effect Size [5]: −0.23 | Lack of energy, Effect Size [5]: −0.033 | Losing weight, Effect Size [5]: −0.21 | Pain, Effect Size [5]: 0.052 | Side effects of treatment, Effect Size [5]: −0.24 | Sleeping well, Effect Size [5]: 0.12 | Weak all over, Effect Size [5]: −0.015 | Worry condition worsen, Effect Size [5]: 0.004 | EQ-VAS, Cabo vs Evero Intercept (change at Week 4) (Early Dropout (before Week 24)): −1.933 | EQ-VAS, Cabo vs Evero Slope (Early Dropout (before Week 24)): 0.498 | FKSI-19 Total, Cabo vs Evero Intercept (change at Week 4) (Early Dropout (before Week 24)): 0.241 | FKSI-19 Total, Cabo vs Evero Slope (Early Dropout (before Week 24)): 0.131 | FKSI-DRS (9-item), Cabo vs Evero Intercept (change at Week 4) (Early Dropout (before Week 24)): 1.445 | FKSI-DRS (9-item), Cabo vs Evero Slope (Early Dropout (before Week 24)): 0.037 | EQ-VAS, Cabo vs Evero Intercept (change at Week 4) [6]: −4.749 | EQ-VAS, Cabo vs Evero Slope [6]: 0.134 | FKSI-19 Total, Cabo vs Evero Intercept (change at Week 4) [6]: −5.141 | FKSI-19 Total, Cabo vs Evero Slope [6]: 0.082 | FKSI-DRS (9-item), Cabo vs Evero Intercept (change at Week 4) [6]: −1.307 | FKSI-DRS (9-item), Cabo vs Evero Slope [6]: 0.046 | EQ-VAS, Cabo vs Evero Intercept (change at Week 4) (Median Dropout (Weeks 25-33)): −0.352 | EQ-VAS, Cabo vs Evero Slope (Median Dropout (Weeks 25-33)): 0.146 | FKSI-19 Total, Cabo vs Evero Intercept (change at Week 4) (Median Dropout (Weeks 25-33)): −2.003 | FKSI-19 Total, Cabo vs Evero Slope (Median Dropout (Weeks 25-33)): 0.141 | FKSI-DRS (9-item), Cabo vs Evero Intercept (change at Week 4) (Median Dropout (Weeks 25-33)): −0.313 | FKSI-DRS (9-item), Cabo vs Evero Slope (Median Dropout (Weeks 25-33)): 0.094 | TTD HR, cabozantinib vs everolimus (overall ITT, unstratified): 0.65 | Median time to deterioration (TTD) (overall ITT, earlier of death, rPD, ≥4-point FKSI-DRS decrease from baseline): 5.5 mo | EQ-VAS, LSMean change from baseline (repeated measures, ITT): −1.32 | FKSI-19 (19-item) Total Score, LSMean change from baseline (repeated measures, ITT): −3.483 | FKSI-DRS (9-item), LSMean change from baseline (repeated measures, ITT): −0.52
